Measured values as given in patent US9376425B2, “Heterocyclic compounds as MDM2 inhibitors for the treatment of cancer” (AMGEN INC., priority 2011, dated 2016).

Target: T1, human MDM2 (GST-hMDM2 1-188), interaction with biotinylated-p53 (1-83) (Homo sapiens, UniProt Q00987)
T1 construct: Amino acid residues 1-188 of human MDM2 were expressed; made in house; host or cells: Escherichia coli
Test: improved HTRF assay (HTRF2 assay), inhibition of HDM2-p53 interaction
Type: binding
Conditions: 0.2 nM GST-hMDM2, 0.5 nM biotinylated-p53, 100 mM KF
Method in brief: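 Time-resolved fluorescence (HTRF) read after >4 h equilibration with SA-XLent/anti-GST cryptate/KF detection reagents. Reaction: compound plus GST-hMDM2 for 20 min at room temperature, then E. coli-expressed biotinylated p53 residues 1-83 for 60 min, 2% DMSO final. Inhibition expressed versus nutlin-3.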

T1 sequence (Q00987 1-188): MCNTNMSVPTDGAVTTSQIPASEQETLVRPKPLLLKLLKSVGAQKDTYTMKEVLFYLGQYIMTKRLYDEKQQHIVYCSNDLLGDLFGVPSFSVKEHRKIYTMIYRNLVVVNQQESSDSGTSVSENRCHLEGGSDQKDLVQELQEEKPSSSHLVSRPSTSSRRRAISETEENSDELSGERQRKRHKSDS

CC[C@@H](CS(=O)(=O)C(C)(C)C)N1C(=O)[C@@H](CC(N)=O)O[C@H](c2cccc(Cl)c2)[C@H]1c1ccc(Cl)cc1 (single isomer, unassigned) [Example 261, 2-((2R,5R,6R)-4-((S)-1-(tert-butylsulfonyl)butan-2-yl)-6-(3-chlorophenyl)-5-(4-chlorophenyl)-3-oxomorpholin-2-yl)acetamide or 2-((2S,5R,6R)-4-((S)-1-(tert-butylsulfonyl)butan-2-yl)-6-(3-chlorophenyl)-5-(4-chlorophenyl)-3-oxomorpholin-2-yl)acetamide]
IC50: 6 nM

CC[C@@H](CN(c1ccccc1F)S(=O)(=O)C1CC1)N1C(=O)[C@@H](CCC(=O)O)O[C@H](c2cccc(Cl)c2)[C@H]1c1ccc(Cl)cc1 (single isomer, unassigned) [Example 262, 3-((2R,5R,6R)-6-(3-chlorophenyl)-5-(4-chlorophenyl)-4-((S)-1-(N-(2-fluorophenyl)cyclopropanesulfonamido)butan-2-yl)-3-oxomorpholin-2-yl)propanoic acid or 3-((2S,5R,6R)-6-(3-chlorophenyl)-5-(4-chlorophenyl)-4-((S)-1-(N-(2-fluorophenyl)cyclopropanesulfonamido)butan-2-yl)-3-oxomorpholin-2-yl)propanoic acid]
IC50: 2 nM

CC[C@@H](CN(c1ccccc1F)S(=O)(=O)C1CC1)N1C(=O)[C@@H](CCC(=O)O)O[C@H](c2cccc(Cl)c2)[C@H]1c1ccc(Cl)cc1 (single isomer, unassigned) [Example 263, 3-((2R,5R,6R)-6-(3-chlorophenyl)-5-(4-chlorophenyl)-4-((S)-1-(N-(2-fluorophenyl)cyclopropanesulfonamido)butan-2-yl)-3-oxomorpholin-2-yl)propanoic acid or 3-((2S,5R,6R)-6-(3-chlorophenyl)-5-(4-chlorophenyl)-4-((S)-1-(N-(2-fluorophenyl)cyclopropanesulfonamido)butan-2-yl)-3-oxomorpholin-2-yl)propanoic acid]
IC50: 2 nM

CC[C@@H](CN(c1ccccc1Cl)S(=O)(=O)C1CC1)N1C(=O)[C@@H](CC(=O)O)O[C@H](c2cccc(Cl)c2)[C@H]1c1ccc(Cl)cc1 (single isomer, unassigned) [Example 264, 2-((2R,5R,6R)-6-(3-chlorophenyl)-5-(4-chlorophenyl)-4-((S)-1-(N-(2-chlorophenyl)cyclopropanesulfonamido)butan-2-yl)-3-oxomorpholin-2-yl)acetic acid or 2-((2S,5R,6R)-6-(3-chlorophenyl)-5-(4-chlorophenyl)-4-((S)-1-(N-(2-chlorophenyl)cyclopropanesulfonamido)butan-2-yl)-3-oxomorpholin-2-yl)acetic acid]
IC50: 19 nM

CC[C@@H](CN(c1ccccc1Cl)S(=O)(=O)C1CC1)N1C(=O)[C@@H](CC(=O)O)O[C@H](c2cccc(Cl)c2)[C@H]1c1ccc(Cl)cc1 (single isomer, unassigned) [Example 265, 2-((2R,5R,6R)-6-(3-chlorophenyl)-5-(4-chlorophenyl)-4-((S)-1-(N-(2-chlorophenyl)cyclopropanesulfonamido)butan-2-yl)-3-oxomorpholin-2-yl)acetic acid or 2-((2S,5R,6R)-6-(3-chlorophenyl)-5-(4-chlorophenyl)-4-((S)-1-(N-(2-chlorophenyl)cyclopropanesulfonamido)butan-2-yl)-3-oxomorpholin-2-yl)acetic acid]
IC50: 1 nM

CC(C)(C)S(=O)(=O)C[C@H](C1CCC1)N1C(=O)[C@@H](CC(=O)O)O[C@H](c2cccc(Cl)c2)[C@H]1c1ccc(Cl)cc1 (single isomer, unassigned) [Example 270, 2-((2R,5R,6R)-4-((S)-2-(tert-Butylsulfonyl)-1-cyclobutylethyl)-6-(3-chlorophenyl)-5-(4-chlorophenyl)-3-oxomorpholin-2-yl)acetic acid or 2-((2S,5R,6R)-4-((S)-2-(tert-butylsulfonyl)-1-cyclobutylethyl)-6-(3-chlorophenyl)-5-(4-chlorophenyl)-3-oxomorpholin-2-yl)acetic acid]
IC50: 2 nM

CC(C)(C)S(=O)(=O)C[C@H](C1CCC1)N1C(=O)[C@@H](CC(=O)O)O[C@H](c2cccc(Cl)c2)[C@H]1c1ccc(Cl)cc1 (single isomer, unassigned) [Example 271, 2-((2R,5R,6R)-4-((S)-2-(tert-Butylsulfonyl)-1-cyclobutylethyl)-6-(3-chlorophenyl)-5-(4-chlorophenyl)-3-oxomorpholin-2-yl)acetic acid or 2-((2S,5R,6R)-4-((S)-2-(tert-butylsulfonyl)-1-cyclobutylethyl)-6-(3-chlorophenyl)-5-(4-chlorophenyl)-3-oxomorpholin-2-yl)acetic acid]
IC50: 5 nM

CC(C)(C)S(=O)(=O)C[C@@H](C1CCC1)N1C(=O)[C@@H](CC(=O)O)O[C@H](c2cccc(Cl)c2)[C@H]1c1ccc(Cl)cc1 (single isomer, unassigned) [Example 272, 2-((2R,5R,6R)-4-((R)-2-(tert-Butylsulfonyl)-1-cyclobutylethyl)-6-(3-chlorophenyl)-5-(4-chlorophenyl)-3-oxomorpholin-2-yl)acetic acid or 2-((2S,5R,6R)-4-((R)-2-(tert-butylsulfonyl)-1-cyclobutylethyl)-6-(3-chlorophenyl)-5-(4-chlorophenyl)-3-oxomorpholin-2-yl)acetic acid]
IC50: 154 nM

CC(C)(C)S(=O)(=O)C[C@@H](C1CCC1)N1C(=O)[C@@H](CC(=O)O)O[C@H](c2cccc(Cl)c2)[C@H]1c1ccc(Cl)cc1 (single isomer, unassigned) [Example 273, 2-((2R,5R,6R)-4-((R)-2-(tert-Butylsulfonyl)-1-cyclobutylethyl)-6-(3-chlorophenyl)-5-(4-chlorophenyl)-3-oxomorpholin-2-yl)acetic acid or 2-((2S,5R,6R)-4-((R)-2-(tert-butylsulfonyl)-1-cyclobutylethyl)-6-(3-chlorophenyl)-5-(4-chlorophenyl)-3-oxomorpholin-2-yl)acetic acid]
IC50: 95 nM

O=C(O)C[C@H]1O[C@H](c2cccc(Cl)c2)[C@@H](c2ccc(Cl)cc2)N([C@H](CN(c2ccccc2F)S(=O)(=O)C2CC2)C(F)(F)F)C1=O (single isomer, unassigned) [Example 274]
IC50: 4 nM

O=C(O)C[C@H]1O[C@H](c2cccc(Cl)c2)[C@@H](c2ccc(Cl)cc2)N([C@H](CN(c2cc(F)ccc2F)S(=O)(=O)C2CC2)C2CC2)C1=O (single isomer, unassigned) [Example 275, 2-((2R,5R,6R)-6-(3-Chlorophenyl)-5-(4-chlorophenyl)-4-((S)-1-cyclopropyl-2-(N-(2,5-difluorophenyl)cyclopropanesulfonamido)ethyl)-3-oxomorpholin-2-yl)acetic acid or 2-((2S,5R,6R)-6-(3-chlorophenyl)-5-(4-chlorophenyl)-4-((S)-1-cyclopropyl-2-(N-(2,5-difluorophenyl)cyclopropanesulfonamido)ethyl)-3-oxomorpholin-2-yl)acetic acid]
IC50: < 1 nM

O=C(O)C[C@H]1O[C@H](c2cccc(Cl)c2)[C@@H](c2ccc(Cl)cc2)N([C@H](CN(c2cc(F)ccc2F)S(=O)(=O)C2CC2)C2CC2)C1=O (single isomer, unassigned) [Example 276, 2-((2R,5R,6R)-6-(3-Chlorophenyl)-5-(4-chlorophenyl)-4-((S)-1-cyclopropyl-2-(N-(2,5-difluorophenyl)cyclopropanesulfonamido)ethyl)-3-oxomorpholin-2-yl)acetic acid or 2-((2S,5R,6R)-6-(3-chlorophenyl)-5-(4-chlorophenyl)-4-((S)-1-cyclopropyl-2-(N-(2,5-difluorophenyl)cyclopropanesulfonamido)ethyl)-3-oxomorpholin-2-yl)acetic acid]
IC50: < 1 nM

O=C(O)C[C@H]1O[C@H](c2cccc(Cl)c2)[C@@H](c2ccc(Cl)cc2)N([C@H](CN(c2ccccc2F)S(=O)(=O)C2CC2)CC(F)(F)F)C1=O (single isomer, unassigned) [Example 277]
IC50: 106 nM

O=C(O)C[C@H]1O[C@H](c2cccc(Cl)c2)[C@@H](c2ccc(Cl)cc2)N([C@H](CN(c2ccccc2F)S(=O)(=O)C2CC2)CC(F)(F)F)C1=O (single isomer, unassigned) [Example 278]
IC50: 84 nM

O=C(O)C[C@H]1O[C@H](c2cccc(Cl)c2)[C@@H](c2ccc(Cl)cc2)N([C@H](CN(c2ccccc2F)S(=O)(=O)C2CC2)CC(F)(F)F)C1=O (single isomer, unassigned) [Example 279]
IC50: 39 nM

CC[C@@H](CS(=O)(=O)[C@H](C)C(C)C)N1C(=O)[C@H](CC(=O)O)O[C@H](c2cccc(Cl)c2)[C@H]1c1ccc(Cl)cc1 (single isomer, unassigned) [Example 282]
IC50: 2 nM

CC[C@@H](CS(=O)(=O)[C@H](C)C(C)C)N1C(=O)[C@H](CC(=O)O)O[C@H](c2cccc(Cl)c2)[C@H]1c1ccc(Cl)cc1 (single isomer, unassigned) [Example 283]
IC50: 3 nM

CC[C@@H](CS(=O)(=O)[C@H](C)C(C)C)N1C(=O)[C@H](CC(=O)O)O[C@H](c2cccc(Cl)c2)[C@H]1c1ccc(Cl)cc1 (single isomer, unassigned) [Example 284]
IC50: 5 nM

CC[C@@H](CS(=O)(=O)[C@H](C)C(C)C)N1C(=O)[C@H](CC(=O)O)O[C@H](c2cccc(Cl)c2)[C@H]1c1ccc(Cl)cc1 (single isomer, unassigned) [Example 285]
IC50: 9 nM

O=C(O)C[C@H]1O[C@H](c2cccc(Cl)c2)[C@@H](c2ccc(Cl)cc2)N([C@H](CS(=O)(=O)c2ccncc2)C2CC2)C1=O (single isomer, unassigned) [Example 286, 2-((2R,5R,6R)-6-(3-Chlorophenyl)-5-(4-chlorophenyl)-4-((S)-1-cyclopropyl-2-(pyridin-4-ylsulfonyl)ethyl)-3-oxomorpholin-2-yl)acetic acid or 2-((2S,5R,6R)-6-(3-chlorophenyl)-5-(4-chlorophenyl)-4-((S)-1-cyclopropyl-2-(pyridin-4-ylsulfonyl)ethyl)-3-oxomorpholin-2-yl)acetic acid]
IC50: 2 nM
